Measurements taken from the supplement of paper PMC10307832.

What was measured:
Test in all cases: relative viability (nuclei count vs DMSO), 5 days (fraction); higher = more cells survive
A549 = test system: A549
In short: (§1)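 Relative viability was taken as the ratio of nuclei in treated wells to nuclei in vehicle wells. Lung cancer cell lines in 1536-well plates received compounds by pin tool one day after seeding, either one drug alone or a fixed anchor-drug dose plus five library-drug doses (not always all listed) in √10 steps. Nuclei were counted on 4× images after 5 days of treatment, and values are medians of duplicate plates.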

Calu-6 = test system: Calu-6
In short: as §1

EBC-1 = test system: EBC-1
In short: as §1

HCC-366 = test system: HCC-366
In short: as §1

HCC-44 = test system: HCC-44
In short: as §1

IA-LM = test system: IA-LM
In short: as §1

LOU-NH91 = test system: LOU-NH91
In short: as §1

LXF-289 = test system: LXF-289
In short: as §1

NCI-H1299 = test system: NCI-H1299
In short: as §1

NCI-H1437 = test system: NCI-H1437
In short: as §1

NCI-H1703 = test system: NCI-H1703
In short: as §1

NCI-H2085 = test system: NCI-H2085
In short: as §1

NCI-H3122 = test system: NCI-H3122
In short: as §1

With `Cc1sc2c(c1C)C(c1ccc(Cl)cc1)=N[C@@H](CC(=O)OC(C)(C)C)c1nnc(C)n1-2` [JQ1] + CS(=O)(=O)N1CCN(Cc2cc3nc(-c4cccc5[nH]ncc45)nc(N4CCOCC4)c3s2)CC1 [Pictilisib] (partner 1 µM) the relative viability (A549; first compound 0.04 µM) was 0.511, the relative viability (A549; first compound 0.1265 µM) was 0.421 and the relative viability (A549; first compound 0.4 µM) was 0.35. It also gave a relative viability (A549; first compound 1.265 µM) of 0.253, a relative viability (A549; first compound 4 µM) of 0.185 and a relative viability (Calu-6; first compound 0.04 µM) of 0.972. It also gave a relative viability (Calu-6; first compound 0.1265 µM) of 0.826, a relative viability (Calu-6; first compound 0.4 µM) of 0.897 and a relative viability (Calu-6; first compound 1.265 µM) of 0.468. It also gave a relative viability (Calu-6; first compound 4 µM) of 0.372, a relative viability (EBC-1; first compound 0.04 µM) of 0.31 and a relative viability (EBC-1; first compound 0.1265 µM) of 0.245. The relative viability (EBC-1; first compound 0.4 µM) was 0.15, the relative viability (EBC-1; first compound 1.265 µM) was 0.11 and the relative viability (EBC-1; first compound 4 µM) was 0.156. The relative viability (HCC-366; first compound 0.04 µM) was 0.136, the relative viability (HCC-366; first compound 0.1265 µM) was 0.156 and the relative viability (HCC-366; first compound 0.4 µM) was 0.131. It also gave a relative viability (HCC-366; first compound 1.265 µM) of 0.153, a relative viability (HCC-366; first compound 4 µM) of 0.196 and a relative viability (HCC-44; first compound 0.04 µM) of 0.623. For the same molecule, the relative viability (HCC-44; first compound 0.1265 µM) was 0.498, the relative viability (HCC-44; first compound 0.4 µM) was 0.532 and the relative viability (HCC-44; first compound 1.265 µM) was 0.294. The relative viability (HCC-44; first compound 4 µM) was 0.213, the relative viability (IA-LM; first compound 0.04 µM) was 0.278 and the relative viability (IA-LM; first compound 0.1265 µM) was 0.103. It also gave a relative viability (IA-LM; first compound 0.4 µM) of 0.0998, a relative viability (IA-LM; first compound 1.265 µM) of 0.0879 and a relative viability (IA-LM; first compound 4 µM) of 0.0786. The relative viability (LOU-NH91; first compound 0.04 µM) was 0.529, the relative viability (LOU-NH91; first compound 0.1265 µM) was 0.545 and the relative viability (LOU-NH91; first compound 0.4 µM) was 0.463. The relative viability (LOU-NH91; first compound 1.265 µM) was 0.419, the relative viability (LOU-NH91; first compound 4 µM) was 0.354 and the relative viability (LXF-289; first compound 0.04 µM) was 0.792. For the same molecule, the relative viability (LXF-289; first compound 0.1265 µM) was 0.783, the relative viability (LXF-289; first compound 0.4 µM) was 0.629 and the relative viability (LXF-289; first compound 1.265 µM) was 0.462. The relative viability (LXF-289; first compound 4 µM) was 0.409, the relative viability (NCI-H1299; first compound 0.04 µM) was 0.691 and the relative viability (NCI-H1299; first compound 0.1265 µM) was 0.482. It also gave a relative viability (NCI-H1299; first compound 0.4 µM) of 0.219, a relative viability (NCI-H1299; first compound 4 µM) of 0.104 and a relative viability (NCI-H1437; first compound 0.04 µM) of 0.405. The relative viability (NCI-H1437; first compound 0.1265 µM) was 0.237, the relative viability (NCI-H1437; first compound 0.4 µM) was 0.233 and the relative viability (NCI-H1437; first compound 1.265 µM) was 0.157. The relative viability (NCI-H1437; first compound 4 µM) was 0.168, the relative viability (NCI-H1703; first compound 0.04 µM) was 0.234 and the relative viability (NCI-H1703; first compound 0.1265 µM) was 0.212. The relative viability (NCI-H1703; first compound 0.4 µM) was 0.238, the relative viability (NCI-H1703; first compound 1.265 µM) was 0.21 and the relative viability (NCI-H1703; first compound 4 µM) was 0.216. It also gave a relative viability (NCI-H2085; first compound 0.04 µM) of 0.462, a relative viability (NCI-H2085; first compound 0.1265 µM) of 0.497 and a relative viability (NCI-H2085; first compound 0.4 µM) of 0.441. The relative viability (NCI-H2085; first compound 1.265 µM) was 0.368, the relative viability (NCI-H2085; first compound 4 µM) was 0.385 and the relative viability (NCI-H3122; first compound 0.04 µM) was 0.576. The relative viability (NCI-H3122; first compound 0.1265 µM) was 0.624, the relative viability (NCI-H3122; first compound 0.4 µM) was 0.675 and the relative viability (NCI-H3122; first compound 1.265 µM) was 0.425. The relative viability (NCI-H3122; first compound 4 µM) was 0.445.
In the case of `Cc1sc2c(c1C)C(c1ccc(Cl)cc1)=N[C@@H](CC(=O)OC(C)(C)C)c1nnc(C)n1-2` [JQ1] + C[C@@H](Oc1cc(-c2cnn(C3CCNCC3)c2)cnc1N)c1c(Cl)ccc(F)c1Cl [Crizotinib] (partner 1 µM), the relative viability (A549; first compound 0.04 µM) is reported as 0.766, the relative viability (A549; first compound 0.1265 µM) is reported as 0.521 and the relative viability (A549; first compound 0.4 µM) is reported as 0.558. It also gave a relative viability (A549; first compound 1.265 µM) of 0.233, a relative viability (A549; first compound 4 µM) of 0.125 and a relative viability (Calu-6; first compound 0.04 µM) of 0.737. For the same molecule, the relative viability (Calu-6; first compound 0.1265 µM) was 0.546, the relative viability (Calu-6; first compound 0.4 µM) was 0.62 and the relative viability (Calu-6; first compound 1.265 µM) was 0.342. For the same molecule, the relative viability (Calu-6; first compound 4 µM) was 0.183, the relative viability (EBC-1; first compound 0.04 µM) was 0.214 and the relative viability (EBC-1; first compound 0.1265 µM) was 0.187. For the same molecule, the relative viability (EBC-1; first compound 0.4 µM) was 0.154, the relative viability (EBC-1; first compound 1.265 µM) was 0.105 and the relative viability (EBC-1; first compound 4 µM) was 0.13. For the same molecule, the relative viability (HCC-366; first compound 0.04 µM) was 0.457, the relative viability (HCC-366; first compound 0.4 µM) was 0.41 and the relative viability (HCC-366; first compound 1.265 µM) was 0.243. For the same molecule, the relative viability (HCC-366; first compound 4 µM) was 0.103, the relative viability (HCC-44; first compound 0.04 µM) was 0.822 and the relative viability (HCC-44; first compound 0.1265 µM) was 0.623. For the same molecule, the relative viability (HCC-44; first compound 0.4 µM) was 0.397, the relative viability (HCC-44; first compound 1.265 µM) was 0.277 and the relative viability (HCC-44; first compound 4 µM) was 0.243. The relative viability (IA-LM; first compound 0.04 µM) was 0.672, the relative viability (IA-LM; first compound 0.1265 µM) was 0.3 and the relative viability (IA-LM; first compound 0.4 µM) was 0.147. The relative viability (IA-LM; first compound 1.265 µM) was 0.101, the relative viability (IA-LM; first compound 4 µM) was 0.108 and the relative viability (LOU-NH91; first compound 0.04 µM) was 0.719. For the same molecule, the relative viability (LOU-NH91; first compound 0.1265 µM) was 0.693, the relative viability (LOU-NH91; first compound 0.4 µM) was 0.531 and the relative viability (LOU-NH91; first compound 1.265 µM) was 0.53. For the same molecule, the relative viability (LOU-NH91; first compound 4 µM) was 0.419, the relative viability (LXF-289; first compound 0.04 µM) was 0.84 and the relative viability (LXF-289; first compound 0.1265 µM) was 0.746. It also gave a relative viability (LXF-289; first compound 0.4 µM) of 0.743, a relative viability (LXF-289; first compound 1.265 µM) of 0.677 and a relative viability (LXF-289; first compound 4 µM) of 0.479. It also gave a relative viability (NCI-H1299; first compound 0.04 µM) of 0.932, a relative viability (NCI-H1299; first compound 0.1265 µM) of 0.768 and a relative viability (NCI-H1299; first compound 0.4 µM) of 0.707. The relative viability (NCI-H1299; first compound 1.265 µM) was 0.352, the relative viability (NCI-H1299; first compound 4 µM) was 0.279 and the relative viability (NCI-H1437; first compound 0.04 µM) was 0.849. It also gave a relative viability (NCI-H1437; first compound 0.1265 µM) of 0.896, a relative viability (NCI-H1437; first compound 0.4 µM) of 0.666 and a relative viability (NCI-H1437; first compound 1.265 µM) of 0.29. For the same molecule, the relative viability (NCI-H1437; first compound 4 µM) was 0.248, the relative viability (NCI-H1703; first compound 0.04 µM) was 0.611 and the relative viability (NCI-H1703; first compound 0.1265 µM) was 0.438. It also gave a relative viability (NCI-H1703; first compound 0.4 µM) of 0.464, a relative viability (NCI-H1703; first compound 1.265 µM) of 0.286 and a relative viability (NCI-H1703; first compound 4 µM) of 0.302. It also gave a relative viability (NCI-H2085; first compound 0.04 µM) of 0.745, a relative viability (NCI-H2085; first compound 0.1265 µM) of 0.629 and a relative viability (NCI-H2085; first compound 0.4 µM) of 0.651. The relative viability (NCI-H2085; first compound 1.265 µM) was 0.458, the relative viability (NCI-H2085; first compound 4 µM) was 0.448 and the relative viability (NCI-H3122; first compound 0.04 µM) was 0.312. For the same molecule, the relative viability (NCI-H3122; first compound 0.1265 µM) was 0.315, the relative viability (NCI-H3122; first compound 0.4 µM) was 0.354 and the relative viability (NCI-H3122; first compound 1.265 µM) was 0.323. For the same molecule, the relative viability (NCI-H3122; first compound 4 µM) was 0.413.
